Source: patent publication US20260015311A1, “AMINO LIPID COMPOUND, PREPARATION METHOD THEREFOR, AND USE THEREOF” (SHENZHEN SHENXIN BIOTECHNOLOGY CO., LTD., priority 2022, published 2026)
Each block holds one molecule with its values, some of them ahead of it.

Tests used:
[1] = tested on: Fluc mRNA; assay: In vivo delivery of luciferase mRNA (Fluc mRNA) by lipid nanoparticles, living imaging; design: species or system BALB/c mice; conditions: after 12 hours, total fluorescence
Procedure: (§1) The amino lipid compounds of the present disclosure were mixed with DOPE, cholesterol, and PEG2000-DMG in a molar ratio of 45:10:42.5:2.5 and dissolved in absolute ethanol. By using a microinjection pump, the resultant ethanol solution and a sodium acetate solution (50 mM, pH=4.0) were mixed in a ratio of 1:3 in a microfluidic chip to prepare a crude solution of lipid nanoparticles, which were then dialyzed in 1×PBS at a controlled temperature of 4° C. for 6 h using a dialysis box (Fisher, MWCO 20,000), and filtered through a 0.22 μm microporous filter membrane before use.
(§2) The formulation method was the same as the formulation method 1, except that the molar ratio of the amino lipid compounds to DSPC, cholesterol and PEG2000-DMG was 50:10:38.5:1.5.
The lipid nanoparticles prepared according to the above formulation method 1 or 2 were used in the biological experiments below for evaluating the performances of in vivo delivery of luciferase mRNA (Fluc mRNA). For the lipid nanoparticles obtained in the formulation method 1, the mass ratio of the amino lipid compounds to the luciferase mRNA was about 10:1, and the lipid nanoparticles were administered subcutaneously; and the lipid nanoparticles obtained in the formulation method 2 were administered by tail vein and intramuscular injection.
6-week-old female BALB/c mice weighed about 20 g were selected and fed in a SPF-grade feeding room. Animal tests were conducted strictly according to the guidelines of National Health institutions and the requirements of animal ethics.
(§3) 9 mice were assigned randomly to each group and injected with the lipid nanoparticles at a dosage of 0.5 mg/kg by three administration routes, i.e., subcutaneous, intramuscular and tail vein injection (three mice for each administration route). After 12 hours, D-luciferin potassium salt (200 μL, 10 mg/mL) was injected into each mouse through the tail vein. After 10 minutes, the total fluorescence intensity of each mouse was observed on a living imaging system (IVIS-200, Xenogen) and taken photographs for record. The expression intensities of Fluc mRNA delivered by representative amino lipid compounds through the three administration routes are shown in Table 2-4. MC3 was used as a control and SM102 was used as a comparative compound.

[2] = tested on: Fluc mRNA; assay: Activity of lipid nanoparticles of formulation method 2, Fluc mRNA by intramuscular administration; format: in vivo, BALB/c mice
Procedure: as §2, §3
Preparation of Lipid Nanoparticles: LNPs were Prepared Using the Formulation Method 2 for Intramuscular Administration.
The measurement method was the same as that of Test Example 1.

[3] = Stability of lipid nanoparticles at 25° C., DLS particle size and PDI; format: physicochemical; conditions: for particle size change after four weeks of storage: 25° C., week 4 versus week 0; for particle size: preparation day (week 0)
Procedure: as §1
(§4) Preparation of Lipid Nanoparticles: The Formulation Method 1 was Used to Prepare LNPs for Subcutaneous Administration.
Characterization of lipid nanoparticles: The particle size and PDI of the prepared lipid nanoparticles were measured by Nano-ZSZEN 3600 (Malvern). 40 μL of the LNP solution was taken for particle size measurement with circulation for three times, 30 seconds for each circulation.
(§5) The particle size measurements were carried out on the day of preparation (week 0), and after one week (week 1), two weeks (week 2), and four weeks (week 4) of storage at 25° C., and the expression intensities of Fluc mRNA delivered by subcutaneous administration were determined on the day of preparation (week 0) and after four weeks (week 4).

[4] = tested on: Fluc mRNA; assay: Stability of lipid nanoparticles at 25° C., subcutaneous expression of Fluc mRNA; format: in vivo, mice; conditions: for Fluc expression change after four weeks: 25° C., week 4 versus week 0
Procedure: as §1, §3, §4, §5

[5] = intramuscular injection, formulation method 2, 0.5 mg/kg
[6] = subcutaneous administration, formulation method 1, 0.5 mg/kg
[7] = tail vein administration, formulation method 2, 0.5 mg/kg
[8] = week 0, subcutaneous administration
[9] = week 4, storage at 25° C., subcutaneous administration

SMILES: CCCCCCCCCCCOC(=O)CCCCCCCN(CCCCCCCC(=O)OC(CCCCCCCC)CCCCCCCC)C1CCCC(C#N)C1 (centres unmarked) [Compound 17]
Fluorescence intensity (expression intensity of Fluc mRNA) [1, 5]: 6.2E + 06

SMILES: CCCCCCCCCOC(=O)CCCCCCCN(CCCCCCCC(=O)OC(CCCCCCCC)CCCCCCCC)C1CCCC(F)C1 (centres unmarked) [Compound 18]
Fluorescence intensity (expression intensity of Fluc mRNA) [1, 5]: 7.8E + 06

SMILES: CCCCCCCCCCCOC(=O)CCCCCN(CCCCCCCC(=O)OC(CCCCCCCC)CCCCCCCC)C1CCC(O)CC1 (centres unmarked) [Comparative compound 7]
Fluorescence intensity (expression intensity of Fluc mRNA) [2]: 4.5E + 06

SMILES: CCCCCCCCCOC(=O)CCCCCCCN(CCCCCCCC(=O)OC(CCCCCCCC)CCCCCCCC)C1CC(O)C1 (centres unmarked) [Compound 1]
Fluorescence intensity (expression intensity of Fluc mRNA) [1, 6]: 2.7E + 07

particle size change after four weeks of storage [3]: did not increase significantly | particle size [3]: about 100 nm | Z-Average ([3]; week 0 (day of preparation)): 110 nm·days | PDI ([3]; week 1, storage at 25° C.): 0.05 | Z-Average ([3]; week 1, storage at 25° C.): 110 nm·days | PDI ([3]; week 2, storage at 25° C.): 0.04 | Z-Average ([3]; week 2, storage at 25° C.): 125 nm·days | Z-Average ([3]; week 4, storage at 25° C.): 125 nm·days
SMILES: CCCCCCCCCOC(=O)CCCCCCCN(CCCCCCCC(=O)OC(CCCCCCCC)CCCCCCCC)C1CCCC(O)C1 (centres unmarked) [Compound 6]
Fluorescence intensity (expression intensity of Fluc mRNA) [1, 5]: 1.2E + 08 | Fluorescence intensity (expression intensity of Fluc mRNA) [1, 6]: 3.7E + 08 | Fluorescence intensity (expression intensity of Fluc mRNA) [1, 7]: 1.7E + 08 | Fluc expression change after four weeks [4]: did not decrease significantly | Fluc Expression intensities [4, 8]: 3.7E+08 | Fluc Expression intensities [4, 9]: 3.6E+08

SMILES: CCCCC/C=C\C/C=C\CCCCCCCCOC(=O)CCCCCCCN(CCCCCCOC(=O)C(CCCCCC)CCCCCCCC)C1CCCC(O)C1 (centres unmarked) [Compound 12]
Fluorescence intensity (expression intensity of Fluc mRNA) [1, 6]: 4.2E + 06 | Fluorescence intensity (expression intensity of Fluc mRNA) [1, 7]: 6.2E + 06

SMILES: CCCCCCCCC(CCCCCC)OC(=O)CCCCCN(CCCCCC(=O)OC(CCCCCC)CCCCCCCC)C1CCCC(O)C1 (centres unmarked) [Compound 8]
Fluorescence intensity (expression intensity of Fluc mRNA) [1, 5]: 9.2E + 06 | Fluorescence intensity (expression intensity of Fluc mRNA) [1, 7]: 5.1E + 06 | Fluorescence intensity (expression intensity of Fluc mRNA) [2]: 9.2E + 06

particle size change after four weeks of storage [3]: did not increase significantly | particle size [3]: about 100 nm | Z-Average ([3]; week 0 (day of preparation)): 115 nm·days | PDI ([3]; week 1, storage at 25° C.): 0.03 | Z-Average ([3]; week 1, storage at 25° C.): 120 nm·days | PDI ([3]; week 2, storage at 25° C.): 0.06 | Z-Average ([3]; week 2, storage at 25° C.): 125 nm·days | Z-Average ([3]; week 4, storage at 25° C.): 125 nm·days
SMILES: CCCCCCCCCOC(=O)CCCCCCCN(CCCCCCOC(=O)C(CCCCCC)CCCCCCCC)C1CCCC(O)C1 (centres unmarked) [Compound 9]
Fluorescence intensity (expression intensity of Fluc mRNA) [1, 5]: 3.7E + 07 | Fluorescence intensity (expression intensity of Fluc mRNA) [1, 6]: 4.2E + 07 | Fluc expression change after four weeks [4]: did not decrease significantly | Fluc Expression intensities [4, 8]: 4.2E+07 | Fluc Expression intensities [4, 9]: 3.1E+07

SMILES: CCCCCCCCCOC(=O)CCCCCCCN(CCCCCCCC(=O)OC(CCCCCCCC)CCCCCCCC)C1CCCC(OC)C1 (centres unmarked) [Compound 16]
Fluorescence intensity (expression intensity of Fluc mRNA) [1, 6]: 1.3E + 06

SMILES: CCCCCCCCCOC(=O)CCCCCCCN(CCCCCCCC(=O)OC(CCCCCCCC)CCCCCCCC)C1CCC(O)C1 (centres unmarked) [Compound 4]
Fluorescence intensity (expression intensity of Fluc mRNA) [2]: 6.7E + 06
